The test system of experiment [1] is Zea mays. The experiment in a line: Increase of acetyl CoA carboxylase activity in Zea mays (maize) at 0.2 % w/w after 15 min relative to control. It counts as functional.
The subject of experiment [2] is Zea mays. As to the kind of experiment: Increase of acetolactate synthase activity in Zea mays (maize) at 0.2 % w/w after 15 min relative to control. It counts as functional.
Experiment [3] relates to Zea mays. As to the kind of experiment: Protection against imazaquin-induced growth inhibition of Zea mays (maize) assessed as safening index at 0.05 to 0.4 % w/w treated 1 to 14 days before imazaquin challenge measured after 3 weeks relative to untreated control. Format: functional.
Experiment [4] deals with Zea mays. As to the kind of experiment: Protection against bensulfuron-methyl-induced growth inhibition of Zea mays (maize) assessed as safening index at 0.05 to 0.4 % w/w treated 1 to 14 days before bensulfuron-methyl challenge measured after 3 weeks relative to untreated control. Format: functional.
In experiment [5] the test system is Zea mays. As to the kind of experiment: Effect on pyruvate content in Zea mays (maize) endosperms assessed per gram of fresh weight at 0.2 % w/w after 10 days (reference value: 11.4 umol). Format: functional.
Experiment [6] deals with Zea mays. The experiment in a line: Effect on pyruvate content in Zea mays (maize) roots assessed per gram of fresh weight at 0.2 % w/w after 10 days (reference value: 13.3 umol). It counts as functional.
Experiment [7] deals with Zea mays. The experiment in a line: Effect on pyruvate content in Zea mays (maize) shoot assessed per gram of fresh weight at 0.2 % w/w after 10 days (reference value: 18.4 umol). It counts as functional.
Experiment [8] has as its system Zea mays. As to the kind of experiment: Decrease of imazaquin-induced increase of pyruvate content in Zea mays (maize) assessed per gram of fresh weight at 0.2 % w/w after 10 days. It counts as functional, organism-based.
Experiment [9] relates to Zea mays. The experiment in a line: Effect on pyruvate content in Zea mays (maize) embryos assessed per gram of fresh weight at 0.2 % w/w after 10 days (reference value: 8.5 umol). It counts as functional.
The test system of experiment [10] is Zea mays. As to the kind of experiment: Decrease of bensulfuron-methyl-induced increase of pyruvate content in Zea mays (maize) assessed per gram of fresh weight at 0.2 % w/w after 10 days. It counts as functional, organism-based.
Experiment [11] concerns Zea mays. As to the kind of experiment: Increase of acetolactate synthase activity in Zea mays (maize) root. Format: functional.
Experiment [12] concerns Zea mays. The experiment in a line: Increase of acetolactate synthase activity in Zea mays (maize) shoot. Format: functional.
Experiment [13] concerns the target T1, Acetolactate synthase (Zea mays, UniProt Q41768+Q41769).
T1 sequence (Q41768 whole entry): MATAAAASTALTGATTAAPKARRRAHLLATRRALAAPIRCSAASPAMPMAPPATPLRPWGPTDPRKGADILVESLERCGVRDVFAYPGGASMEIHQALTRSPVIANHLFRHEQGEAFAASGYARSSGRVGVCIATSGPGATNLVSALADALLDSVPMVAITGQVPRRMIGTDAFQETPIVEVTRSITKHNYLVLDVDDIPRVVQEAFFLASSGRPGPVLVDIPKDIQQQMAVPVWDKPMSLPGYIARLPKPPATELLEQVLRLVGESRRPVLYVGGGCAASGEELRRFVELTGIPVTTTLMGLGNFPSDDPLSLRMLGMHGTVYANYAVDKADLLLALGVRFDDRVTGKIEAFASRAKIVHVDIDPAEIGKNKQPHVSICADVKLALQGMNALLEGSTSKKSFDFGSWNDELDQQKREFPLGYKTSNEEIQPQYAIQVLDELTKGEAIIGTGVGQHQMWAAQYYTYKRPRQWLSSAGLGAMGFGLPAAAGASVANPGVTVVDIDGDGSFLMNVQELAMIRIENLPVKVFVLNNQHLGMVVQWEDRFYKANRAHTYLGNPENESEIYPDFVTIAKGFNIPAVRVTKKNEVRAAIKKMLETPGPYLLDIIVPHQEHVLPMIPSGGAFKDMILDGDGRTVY
T1 sequence (Q41769 whole entry): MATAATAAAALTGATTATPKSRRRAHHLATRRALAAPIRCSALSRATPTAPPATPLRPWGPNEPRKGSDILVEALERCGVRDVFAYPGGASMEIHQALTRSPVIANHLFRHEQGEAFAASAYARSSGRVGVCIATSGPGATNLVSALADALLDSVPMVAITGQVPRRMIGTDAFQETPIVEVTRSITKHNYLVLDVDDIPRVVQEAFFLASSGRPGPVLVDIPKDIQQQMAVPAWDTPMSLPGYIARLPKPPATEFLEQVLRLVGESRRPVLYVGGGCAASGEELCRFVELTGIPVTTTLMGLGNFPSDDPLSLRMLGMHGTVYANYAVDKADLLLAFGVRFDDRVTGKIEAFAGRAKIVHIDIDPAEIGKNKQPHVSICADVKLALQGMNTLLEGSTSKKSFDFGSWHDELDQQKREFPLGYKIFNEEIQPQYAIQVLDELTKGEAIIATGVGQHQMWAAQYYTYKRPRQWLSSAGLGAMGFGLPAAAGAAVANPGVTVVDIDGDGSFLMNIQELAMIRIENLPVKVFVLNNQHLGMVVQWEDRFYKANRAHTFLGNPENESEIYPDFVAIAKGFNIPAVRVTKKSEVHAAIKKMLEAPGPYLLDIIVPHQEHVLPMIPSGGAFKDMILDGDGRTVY
As to the kind of experiment: Inhibition of Zea mays (maize) acetolactate synthase. Format: protein assay.

In ChEMBL document CHEMBL3045574, “Safening Effects of 1, 8-Naphthalic Anhydride in Corn Plants Treated with Bensulfuron-methyl and Imazaquin” (J Pestic Sci, 1997) one finds Activity, Ratio and I50 data, which are given here for 3 compounds.

SMILES strings stand for the structures. Active and inactive are the calls of the source. The rule behind the calls is not given here.

For `O=C1OC(=O)c2cccc3cccc1c23` [1,8-NAPHTHALIC ANHYDRIDE], the Activity turned out to be 216% in experiment [1]; 31.9% in experiment [2]; 11.2 µmol in experiment [5]; 13 µmol in experiment [6]; 16.2 µmol in experiment [7]; 8 µmol in [9]. In addition, the Activity was found to be 30% in experiment [11] and 24% in experiment [12]. For the same compound, the Ratio in experiment [3] is 5.1; in [4] it was 303. The result in experiment [8] and in experiment [10] was Active.

`COC(=O)c1ccccc1CS(=O)(=O)NC(=O)Nc1nc(OC)cc(OC)n1` [BENSULFURON METHYL]: in [13], the I50 was found to be 0.2 µM.

In experiment [13], `CC(C)C1(C)N=C(c2nc3ccccc3cc2C(=O)O)NC1=O` (centres undefined) [IMAZAQUIN] registered an I50 of 11.8 µM.
